Reference: patent publication US20040039048A1, “Therapy with cannabinoid compounds for the treatment of brain tumors” (priority 2000, published 2004)
Entries after “also recorded” stand apart in the source; their conditions may differ. Like-named read-outs stand apart in the source and are kept apart here.

Tests used:
C6 glioblastoma cells [1] = assay: Viability of C6 glioblastoma culture cells (MTT method); format: cell-based; conditions: for IC50: after 5 days of exposure, n=4, read-out: concentration reducing viability of C6 glioblastoma by 50%; for prevention of cell death induced by THC, the two antagonists SR141716 and SR144528 jointly added: 1 μM SR141716 and 1 μM SR144528, 5 days
Protocol: Experiments were conducted with the object of obtaining a pharmacological characterization of cannabinoid-induced death of C6 glioblastoma culture cells.
C6 glioblastoma cells were cultivated at 37° C. and 5% CO2 in F-12 medium supplemented with calf fetal serum at 10%. 24 h before the start of the experiment the cells were transferred to an F-12 medium free of serum and supplemented with insulin (5 μg/ml), transferrine (10 μg/ml), sodium selenite (5 μg/ml) and delipidized and dialyzed BSA (10 mg/ml). The medium was renovated every 48 h and the cell viability was determined by the MTT method (Sanchez, C., Galve-Roperh, I., Canova, C., Brachet, P. & Guzman, M., op cit.).

C6 glioblastoma cells [2] = assay: C6 glioblastoma cells inoculated subcutaneously in immunodeficient RAG-2-/- mice; tumor size; format: in vivo; conditions: 500 μg of THC or 50 μg of WIN-55,212-2 per day for 7 days, caliper, P<0.01 Student t test
Protocol: In order to discern whether the antiproliferative action of cannabinoids was due to a direct effect on the tumoral cells or to an indirect effect mediated by an immune response, C6 glioblastoma cells were inoculated subcutaneously in mice with a deficiency of recombinase RAG-2 (RAG-2^-/-), which lack mature T and B lymphocytes (Shinkai et al. Cell 68, 855-867, 1992).
Tumors were induced in RAG-2^-/- […] by subcutaneous inoculation of 5×10^6 C6 glioblastoma cells in 100 μl of PBS supplemented with 0.1% glucose. […] The tumor sizes were measured by a caliper and their volume calculated according to (4π/3)×(width/2)^2×(length/2). […] In FIG. 4b are shown examples of tumor bearing mice and tumors dissected after treatment with or without cannabinoids for 7 days.

C6 glioblastoma cells [3] = assay: C6 glioblastoma cells inoculated in rat brain; survival and magnetic resonance; format: in vivo, Wistar rats
Protocol: C6 glioblastoma cells were directly inoculated in the brain of Wistar rats and the tumors viewed by magnetic resonance. […] To evaluate the antitumoral potential of the cannabinoids, 12 days after inoculating the cells a group of animals was administered THC or WIN-55, 212-2 for 7 days through a cannula located at the site of inoculation.
Male Wistar rats (250-300 g in body mass) were anaesthetized with 3% isofluorane in an oxygen mixture (0.8 l/min) and protoxide (0.4 l/min). 5×10^8 C6 glioblastoma cells were prepared in 100 μl of saline solution buffered with phosphate (PBS) and supplemented with 0.1% glucose, and stereotaxically injected in the frontal parietal lobule of the right hemisphere (4 mm to the right of bregma, 4.5 mm depth from the cranium) (Izquierdo, M et al., Gene Ther. 2, 66-69, 1995). The rats received dexamethasone (2 mg/l) and tetracycline (75 mg/kg of body weight) in water for 3 days before and 7 days after inoculation of the cells. A thorough monitoring of the tumors was performed by magnetic resonance with the methods described by other authors (Izquierdo, M et al., op cit; Cortés, M. L., de Felipe, P., Martin, V. Hughes, M. A. & Izquierdo, M. Gene Ther. 5, 1499-1507, 1998).
The administration of cannabinoids to rats began 12 days after inoculation of the cells. At this time the average size of the tumors was 70 mm^3 (interval 25-100 mm^3) as estimated by magnetic resonance (Izquierdo, M et al., op cit; Cortés, de Felipe, Martin, Hughes & Izquierdo, M, op cit.). Cannabinoids were administered by a cannula placed at the place of inoculation of the tumor and attached to the cranium by dental cement; a small stainless steel screw anchored the cannula and the dental cement. The cannula was subcutaneously connected by a catheter to an osmotic mini-pump (Alzet 2001) which operated at a flow of 1 μl/h for 7 days. The osmotic pump was filled with 500-2500 μg of THC or 50-250 μg of WIN-55,212-2 in 200 μl of PBS supplemented with 5 mg/l of bovine serum albumin (BSA), delipidized and dialyzed.

[4] = fraction of treated animals, 7 days through cannula from day 12

Compound	IC50 (C6 glioblastoma cells [1])	IC50 (C6 glioblastoma cells [1]; 120 h)	prevention of cell death induced by THC, the two antagonists SR141716 and SR144528 jointly added (C6 glioblastoma cells [1]; 1 μM THC)	size of tumors versus control animals (C6 glioblastoma cells [2])	other results
CCCCCCC(C)(C)c1ccc([C@@H]2C[C@H](O)CC[C@H]2CCCO)c(O)c1 [CP-55,940]	45 nM	–	–	–	–
CCCCCCC(C)(C)c1cc(O)c2c(c1)OC(C)(C)[C@@H]1CC=C(CO)C[C@@H]21 [HU-210]	–	10 nM	–	–	–
Cc1c(C(=O)NN2CCCCC2)nn(-c2ccc(Cl)cc2Cl)c1-c1ccc(Cl)cc1 [SR141716]	–	–	prevented	–	prevention of cell death induced by THC, antagonist added separately (C6 glioblastoma cells [1]; 1 μM THC, 1 μM antagonist, 5 days): Neither
CCCCCc1cc(O)c2c(c1)OC(C)(C)[C@@H]1CCC(C)=C[C@@H]21 [THC, Δ^9-tetrahydrocannabinol]	–	480 nM	–	extraordinarily smaller; also recorded: much smaller	induction of death of C6 glioblastoma cells (C6 glioblastoma cells [1]; 1 μM THC, 5 days, n=6): capable of inducing the death
Cc1c(C(=O)c2cccc3ccccc23)c2cccc3c2n1[C@H](CN1CCOCC1)CO3 [WIN-55,212-2]	20 nM	–	–	much smaller	size of tumors versus control animals (C6 glioblastoma cells [2]; 212-2): extraordinarily smaller; survival time (C6 glioblastoma cells [3]; days after inoculation, in the responding animals, cannabinoid for 7 days through cannula at site of inoculation from day 12, untreated died 12-18 days): 19 to 43 days; animals with increased survival time (C6 glioblastoma cells [3]; [4]): 4/15; animals with tumor completely eradicated (C6 glioblastoma cells [3]; [4]): 5/15
SR144528	–	–	prevented	–	–
